Tests used:
[1] = system: MCF7, SCP28 and SUM1315-M1B1; assay: Bone metastatic seeding after cisplatin pre-treatment (IIA injection, BLI); format: in vivo, athymic nude mice; conditions: cisplatin one day before tumor cell injection, 4 days after injection
Protocol: FIG. 5. Chemotherapy induces Jagged1 expression in osteoblast lineage cells. (A) Jagged1 mRNA expression in osteoblast MC3T3-E1-Clone #4 osteoblast cells and mesenchymal stem cells (MSC), HPMECL endothelial cells (endo), RAW264.7 pre-osteoclast cells, and SCP28 and SUM1315-M1B1 breast tumor cells 48 hr post-treatment with 25 nM paclitaxel or 10 μM cisplatin. (B) Athymic nude mice were i.v. injected with PBS or cisplatin and euthanized 48 hr later. Hind limb bones were collected for IF staining against Alp (green) and Jagged1 (red). Nuclei were counter-stained with DAPI (blue). (C-E) Athymic nude mice were treated with either PBS or cisplatin on Day 0. One day after the pre-treatment, MCF7 (C), SUM1315-M1B1 (D) or SCP28 (E) cells were delivered locally to the hind limbs of these mice by IIA injection. BLI imaging and quantification of BLI signal at Day 4. (F) Mice from experiment in E were euthanized after BLI imaging at Day 4. Hind limbs were fixed and processed for IF imaging of GFP-expressing tumor cells (green) and ALP positive osteoblasts (red). Size bar: 80 μm. In A: n=3. *p<0.05 by Student's t-test. In C-E: n=5. *p<0.05 by Student's t-test. #: statistically insignificant.
To directly test the effect of increased Jagged1 expression in osteoblasts on bone metastasis seeding and progression, two models were utilized. […]

MSCs = assay: Stress inducers/inhibitors: Jagged1 expression and ROS production in MSCs; format: cell-based, mouse
From the text: Next, which signaling pathway is responsible for Jagged1 induction after chemotherapy in osteoblast lineage cells was investigated. Chemotherapy generates many stress responses in cells, including endoplasmic reticulum stress (ER stress), and oxidative stress. Some of the stress conditions have been associated with the regulation of Jagged1 expression (Paul et al., 2014). Several treatments were used to mimic or inhibit these stress responses and then Jagged1 mRNA and protein levels were analyzed within the cells.
293T, H29-Clone #7, MC3T3-E1 Clone #4(denoted as MC3T3 for abbreviation thereafter), MCF7TR, mouse mesenchymal stromal cell (MSC, isolated from BALB/c), 4T1.2, SCP28, SCP28-Vector and -Jagged1 cells, SCP28, RAW264.7, and SUM1315-M1B1 cells were cultured according to American Type Culture Collection instructions and the inventors' previous studies (Ell et al., 2013; Ren et al., 2008; Sethi et al., 2011; Zheng et al., 2014). MSC cells were derived previously and were cultured in DMEM supplemented with 10% FBS, 30 ng/ml bFGF, 100 U/ml penicillin, and 100 μg/ml streptomycin (Ren et al., 2008). All plasmids were transfected into different cell lines using Lipofectamine 2000 following the manufacturer's manual (Life Technologies, CA, USA). To generate stable cell lines, a pLEX-MCS based lentivirus vector or a pMSCV-hygro based retrovirus vector was used in our study. Lentiviruses were packaged in HEK293T cells while retroviruses were packaged by using H29 cell line. Conditional media from these packaging cells containing viruses were collected 2 days and 3 days after transfection. Recipient cell lines were exposed to conditional media containing viruses supplemented with 2 μg/mL Polybrene for 48 h. Infected cells were selected with puromycin or hygromycin to generate stable expressing cell lines. 293T and H29clone #7 are cell lines from female humans. All other cancer cell lines are breast cancer cell lines from either female human or mouse.

SCP28 cells = assay: Parental SCP28 bone metastasis, late treatment with 15D11 and paclitaxel; format: in vivo, mice; conditions: low endogenous Jagged1
From the text: FIG. 4. Synergistic inhibition of bone metastasis by SCP28 with combined treatment of 15D11 and chemotherapy. (A) Schematic illustration of the experimental procedure. (B) Quantification of bone metastasis burden based on BLI imaging. n=10. *p<0.05 and **p<0.01 by Mann-Whitney test. (C) Representative BLI images and X-ray images at week 6. (D) Representative H&E and TRAP staining images from the experiment. (E) Quantification of osteolytic lesions based on X-ray images. n=10. **p<0.01 by Student's t-test. (F) Quantification of TRAP+ osteoclasts from decalcified histological bone sections of hind limbs from mice, n=10. **p<0.01 by Student's t-test. Size bar: 100 μm for H&E and 50 μm for TRAP.
The strong inhibitory effect of the combined treatment on bone metastasis could potentially be explained by the combined effect of blocking Jagged1-dependent stromal engagement by 15D11 and cytotoxicity of paclitaxel to tumor cells. […]
Mice were purchased from Jackson laboratory. […] Spontaneous bone metastasis was monitored by X-ray imaging. […] Bone metastasis burden was monitored by weekly BLI and X-ray imaging. At the experimental endpoint, mice were euthanized for bone histology analysis and half of the bone samples were used for μCT imaging and bone density quantification.

SMILES	bone metastatic seeding (BLI) [1]	ROS production in MSCs (MSCs)	bone metastasis burden (SCP28 cells)
N.N.[Cl][Pt][Cl] [cisplatin]	significant increase	induced ROS production	
CC(=O)O[C@H]1C(=O)[C@@]2(C)[C@H]([C@H](OC(=O)c3ccccc3)[C@]3(O)C[C@H](OC(=O)[C@H](O)[C@@H](NC(=O)c4ccccc4)c4ccccc4)C(C)=C1C3(C)C)[C@]1(OC(C)=O)CO[C@@H]1C[C@@H]2O [paclitaxel]			only slightly reduced metastatic burden

Reference: patent publication US20200237909A1, “METHODS OF TREATING OR PREVENTING BREAST CANCER METASTASES USING ANTIBODIES TO JAGGED1 AND CHEMOTHERAPEUTIC AGENTS” (The Trustees of Princeton University, priority 2017, published 2020)
